{"source": "patent US4508716A", "about": "“[1,2]-Fused 1,4-benzodiazepine compounds, process for their preparation and compositions containing them” (Kali-Chemie Pharma GmbH, priority 1981, dated 1985)", "key": {"[1]": {"experiment": "Acute toxicity (acute 7-day toxicity following a single oral administration, LD50 by probit analysis)", "details": "mouse, in vivo, NMR1 mice", "experimental": "The acute 7-day toxicity is determined following a single oral administration to white, fasting NMR1 mice, and the LD50 value is calculated by electronic data processing, by probit analysis."}, "[2]": {"system": "apomorphine-induced climbing behaviour", "experiment": "Test for neuroleptic properties: inhibition of apomorphine-induced climbing behaviour in mice", "type": "in vivo", "details": "Mus musculus, male NMR1 mice, 60 min before apomorphine 1.0 mg/kg s.c.; for inhibition in vivo at 2.2 mg/kg: dose 2.2 mg/kg peroral", "experimental": "2. Test for neuroleptic properties\nDetermination of the effective dose for inhibiting apomorphine-induced climbing behaviour in mice (modified method of P. Protais et al., Psychopharmacology 50, (1976), 1-6).\nGroups each containing 10 male NMR1 mice of 18-24 g. body weight are used per test dose. The test substance is administered perorally, as a suspension in […] \"Tylose\" solution.\nAfter 60 minutes, the animals are each injected subcutaneously with 1.0 mg./kg. of apomorphine, and immediately after the injection, each animal is placed under a vertical wire mesh cylinder (diameter 13 cm., height 16 cm., closed at the top). After 10, 20 and 30 minutes, the climbing behaviour of the animals is evaluated in accordance with the following point system:\n0 points=no paw on the mesh\n1 point=one or two paws touching the mesh\n2 points=three or all paws gripping the mesh, or climbing\nFor each test group, the sum of the points (maximum number of points=20) at the three test times is determined, and the average of the 3 values is taken for calculating the inhibition of climbing behaviour effected by the test substance.\nIn the table which follows, the inhibiting action is given in % inhibition in comparison with the climbing behaviour of a control group which was not treated with the test substance."}, "hexobarbital anaesthesia": {"system": "hexobarbital anaesthesia", "experiment": "Test for the central nervous system sedating properties: prolongation of the duration of hexobarbital anaesthesia in mice", "type": "in vivo", "details": "male mice, 60 min before hexobarbital sodium 50 mg/kg i.v."}}}
{"compound": "CN1CCN2c3ccccc3C(c3cccs3)=NCC2C1", "note": "(centres unmarked) [Example 4, 1,2,3,4,4a,5-Hexahydro-3-methyl-7-(2-thienyl)-pyrazino[1,2-a][1,4]benzodiazepine]", "values": [{"measurement": "LD50 at 168 h", "setting": "[1]", "result": "~440", "unit": "mg/kg"}, {"measurement": "inhibition in vivo at 2.9 mg/kg", "setting": "[2]; dose 2.9 mg/kg peroral", "result": 70, "unit": "%"}, {"measurement": "Prolongation of the duration of hexobarbital anaesthesia, prolongation factor", "setting": "hexobarbital anaesthesia; dose ≤13.8 mg/kg peroral", "result": 0}]}
{"compound": "CN1CCN2c3ccc(Cl)cc3C(c3cccn3C)=NCC2C1", "note": "(centres unmarked) [Example 9, 1,2,3,4,4a,5-Hexahydro-9-chloro-3-methyl-7-[2-(N-methyl)-pyrrolyl]-pyrazino[1,2-a][1,4]benzodiazepine]", "values": [{"measurement": "LD50 at 168 h", "setting": "[1]", "result": "> 893", "unit": "mg/kg"}, {"measurement": "inhibition in vivo at 4.2 mg/kg", "setting": "[2]; dose 4.2 mg/kg peroral", "result": 48, "unit": "%"}, {"measurement": "Prolongation of the duration of hexobarbital anaesthesia, prolongation factor", "setting": "hexobarbital anaesthesia; dose ≤41.5 mg/kg peroral", "result": 0}]}
{"compound": "Cc1ccc2c(c1)C(c1ccco1)=NCC1CN(C)CCN21", "note": "(centres unmarked) [Example 10a, 1,2,3,4,4a,5-Hexahydro-3,9-dimethyl-7-(2-furyl)-pyrazino[1,2-a][1,4]benzodiazepine]", "values": [{"measurement": "LD50 at 168 h", "setting": "[1]", "result": "> 422", "unit": "mg/kg"}, {"measurement": "inhibition in vivo at 13.3 mg/kg", "setting": "[2]; dose 13.3 mg/kg peroral", "result": 31, "unit": "%"}, {"measurement": "Prolongation of the duration of hexobarbital anaesthesia, prolongation factor", "setting": "hexobarbital anaesthesia; dose ≤42.2 mg/kg peroral", "result": 0}]}
{"compound": "Cc1ccc2c(c1)C(c1ccc(Br)s1)=NCC1COCCN21", "note": "(centres unmarked) [Example 22]", "values": [{"measurement": "LD50 at 168 h", "setting": "[1]", "result": "> 811", "unit": "mg/kg"}, {"measurement": "inhibition in vivo at 8.1 mg/kg", "setting": "[2]; dose 8.1 mg/kg peroral", "result": 50, "unit": "%"}, {"measurement": "Prolongation of the duration of hexobarbital anaesthesia, prolongation factor", "setting": "hexobarbital anaesthesia; dose 37.7 mg/kg peroral", "result": 1.5}]}
{"compound": "Cc1ccc2c(c1)C(c1ccco1)=[N+]([O-])CC1CN(C)CCN21", "note": "(centres unmarked) [Example 35]", "values": [{"measurement": "LD50 at 168 h", "setting": "[1]", "result": "> 311", "unit": "mg/kg"}, {"measurement": "inhibition in vivo at 9.8 mg/kg", "setting": "[2]; dose 9.8 mg/kg peroral", "result": 35, "unit": "%"}, {"measurement": "Prolongation of the duration of hexobarbital anaesthesia, prolongation factor", "setting": "hexobarbital anaesthesia; dose 9.8 mg/kg peroral", "result": 2.1}]}
{"compound": "COc1ccc2c(c1)N1CCN(C)CC1C[N+]([O-])=C2c1ccco1", "note": "(centres unmarked) [Example 36]", "values": [{"measurement": "LD50 at 168 h", "setting": "[1]", "result": "> 704", "unit": "mg/kg"}, {"measurement": "inhibition in vivo at 22.3 mg/kg", "setting": "[2]; dose 22.3 mg/kg peroral", "result": 34, "unit": "%"}, {"measurement": "Prolongation of the duration of hexobarbital anaesthesia, prolongation factor", "setting": "hexobarbital anaesthesia; dose ≤70.4 mg/kg peroral", "result": 0}]}
{"compound": "CCOc1ccc2c(c1)C(c1ccn(C)c1)=NCC1CN(C)CCN21", "note": "(centres unmarked) [Example 41]", "values": [{"measurement": "inhibition in vivo at 13.9 mg/kg", "setting": "[2]; dose 13.9 mg/kg peroral", "result": 14, "unit": "%"}, {"measurement": "Prolongation of the duration of hexobarbital anaesthesia, prolongation factor", "setting": "hexobarbital anaesthesia; dose 43.8 mg/kg peroral", "result": 1.6}]}
{"compound": "COc1ccc2c(c1)N1CCN(C)CC1CN=C2c1cccs1", "note": "(centres unmarked) [Example 51]", "values": [{"measurement": "LD50 at 168 h", "setting": "[1]", "result": "> 704", "unit": "mg/kg"}, {"measurement": "inhibition in vivo at 2.2 mg/kg", "setting": "[2]", "result": 57, "unit": "%"}, {"measurement": "Prolongation of the duration of hexobarbital anaesthesia, prolongation factor", "setting": "hexobarbital anaesthesia; dose 22.3 mg/kg peroral", "result": 1.9}]}
{"compound": "CN1CCN2c3cc(F)ccc3C(c3cccs3)=NCC2C1", "note": "(centres unmarked) [Example 55]", "values": [{"measurement": "LD50 at 168 h", "setting": "[1]", "result": "> 315", "unit": "mg/kg"}, {"measurement": "inhibition in vivo at 0.2 mg/kg", "setting": "[2]; dose 0.2 mg/kg peroral", "result": 47, "unit": "%"}, {"measurement": "Prolongation of the duration of hexobarbital anaesthesia, prolongation factor", "setting": "hexobarbital anaesthesia; dose 6.8 mg/kg peroral", "result": 1.3}]}
{"compound": "Cc1cc(C)c2c(c1)N1CCOCC1CN=C2c1cccs1", "note": "(centres unmarked) [Example 63]", "values": [{"measurement": "inhibition in vivo at 21.3 mg/kg", "setting": "[2]; dose 21.3 mg/kg peroral", "result": 11, "unit": "%"}, {"measurement": "Prolongation of the duration of hexobarbital anaesthesia, prolongation factor", "setting": "hexobarbital anaesthesia; dose 67.2 mg/kg peroral", "result": 1.5}]}
{"compound": "Cc1cc(C)c2c(c1)N1CCSCC1CN=C2c1cccs1", "note": "(centres unmarked) [Example 65]", "values": [{"measurement": "inhibition in vivo at 22.4 mg/kg", "setting": "[2]; dose 22.4 mg/kg peroral", "result": 12, "unit": "%"}]}
{"compound": "CCN1CCN2c3ccccc3C(c3cccs3)=NCC2C1", "note": "(centres unmarked) [Example 69]", "values": [{"measurement": "LD50 at 168 h", "setting": "[1]", "result": "~420", "unit": "mg/kg"}, {"measurement": "inhibition in vivo at 0.7 mg/kg", "setting": "[2]; dose 0.7 mg/kg peroral", "result": 71, "unit": "%"}, {"measurement": "Prolongation of the duration of hexobarbital anaesthesia, prolongation factor", "setting": "hexobarbital anaesthesia; dose ≤28.0 mg/kg peroral", "result": 0}]}
{"compound": "C=CCN1CCN2c3ccccc3C(c3cccs3)=NCC2C1", "note": "(centres unmarked) [Example 70]", "values": [{"measurement": "LD50 at 168 h", "setting": "[1]", "result": "~790", "unit": "mg/kg"}, {"measurement": "inhibition in vivo at 2.2 mg/kg", "setting": "[2]", "result": 36, "unit": "%"}, {"measurement": "Prolongation of the duration of hexobarbital anaesthesia, prolongation factor", "setting": "hexobarbital anaesthesia; dose ≤39.6 mg/kg peroral", "result": 0}]}
{"compound": "CC(C)CCN1CCN2c3ccccc3C(c3cccs3)=NCC2C1", "note": "(centres unmarked) [Example 74]", "values": [{"measurement": "LD50 at 168 h", "setting": "[1]", "result": "~730", "unit": "mg/kg"}, {"measurement": "inhibition in vivo at 3.3 mg/kg", "setting": "[2]; dose 3.3 mg/kg peroral", "result": 70, "unit": "%"}, {"measurement": "Prolongation of the duration of hexobarbital anaesthesia, prolongation factor", "setting": "hexobarbital anaesthesia; dose 33.0 mg/kg peroral", "result": 2.0}]}
